Measurements: EP2072511A1 (INSERM (Institut National de la Santé et de la Recherche …, priority 2007, dated 2009)

Assays:
[1] = molecular target: T1, PrP^Sc from a prion-infected cellular lysate (Mus musculus, UniProt P04925)
[2] = molecular target: T1, PrP^Sc from a prion-infected cellular lysate; experiment: biochemical; conditions: 1 h, read-out: amplification of the oligomerization in cellular extract
[3] = molecular target: PrP^Sc from infected N2a58/22L cells (Mus musculus, UniProt P04925); type: cell-based, murine
PrP^Sc from infected N2a58/22L cells, sequence (P04925 23-230 limits assumed): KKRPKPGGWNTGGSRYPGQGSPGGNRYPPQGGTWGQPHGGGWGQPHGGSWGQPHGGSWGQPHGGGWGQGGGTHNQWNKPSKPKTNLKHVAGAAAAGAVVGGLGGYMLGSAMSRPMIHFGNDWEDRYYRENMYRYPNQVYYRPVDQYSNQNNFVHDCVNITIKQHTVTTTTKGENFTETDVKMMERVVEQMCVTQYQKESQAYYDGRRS

T1 sequence (P04925 23-230 limits assumed): as above

Structure (SMILES) | concentration at which the compound is efficient (oligomerization on cellular extract) [1] | fold induction at 1 µM [2] | amount of oligomeric forms observed, compared with compound T 1 or T2 under the same conditions [3] | dosis for which the saturation of the signal (effect of oligomerisation) is achieved [3]
CSc1nccc(-c2ccc(Br)s2)n1 [T1] | ≥ 312 µM |  |  | 
Nc1nc(N)nc(-c2ccc(-c3ccc(-c4ccc(-c5ccc(-c6nc(N)nc(N)n6)s5)s4)s3)s2)n1 [compound I, 6,6'-(2,2':5',2":5",2'''-quaterthiophene-5,5'''-diyl)bis(1,3,5-triazine-2,4-diamine)] |  | ≥ 100 | much greater | 2.5 µM
